Measured values: patent publication US20220233441A1, “MIC[…] SYSTEMS FOR CANNABIS EXTRACTS AND […]” (Quicksilver Scientific, Inc., priority 2019, published 2022)
“Also recorded” adds a separate entry of the source.

Assay: Formation of shelf-stable and visually clear MOIW microemulsions with different constituents
Type: physicochemical
Description: A shelf-stable microemulsion may be determined in one of two ways. […] Either type of dissociation means that the microemulsion is not shelf-stable.
A visually clear microemulsion has an average particle diameter of 200 nm and less and lacks precipitated solid crystals visible to the naked eye.

Row | Compound | usefulness of the constituent for forming shelf-stable and visually clear MOIW microemulsions
1 | OC[C@@H](O)[C@@H](O)CO [erythritol] | not useful
2 | OC[C@@H](O)[C@@H](O)[C@H](O)[C@H](O)CO [mannitol] | not useful
3 | OC[C@@H](O)[C@@H](O)[C@H](O)[C@@H](O)CO [sorbitol] | not useful
4 | OC[C@@H](O)[C@H](O)[C@@H](O)CO [xylitol] | not useful
5 | polysorbate 20 | did not form shelf-stable and visually clear microemulsions; also recorded: not useful
